Where a name gives a salt, the structure may show the parent alone. ± gives the standard deviation of the averaged measurements.
Tested on: HepaRG
Test: LDH release cytotoxicity, % of total lysis control; higher = more cytotoxic
Conditions: 48 h
In short: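 The CytoTox-ONE kit was used to read LDH in 50 µL spent medium as resorufin fluorescence on a Tecan Safire, with 0.1% Triton X added to total lysis wells. Beforehand, single-lot HepaRG cells on collagen I-coated 96-well plates had been exposed in duplicate for 48 h to eight-point half-log series (top 100 µM) in serum-free induction medium containing 0.5% DMSO. Percent cytotoxicity was normalized against on-plate vehicle and total lysis controls and averaged over duplicates.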

Structure (SMILES) | LDH release cytotoxicity (0.03162 µM) | LDH release cytotoxicity (0.1 µM) | LDH release cytotoxicity (0.3162278 µM) | LDH release cytotoxicity (1 µM) | LDH release cytotoxicity (3.16228 µM) | LDH release cytotoxicity (10 µM) | LDH release cytotoxicity (31.6228 µM) | LDH release cytotoxicity (100 µM) | LDH release cytotoxicity (0.031623 µM) | LDH release cytotoxicity (0.316228 µM) | LDH release cytotoxicity (0.0301998 µM) | LDH release cytotoxicity (0.0955 µM) | LDH release cytotoxicity (0.301997 µM) | LDH release cytotoxicity (0.955 µM) | LDH release cytotoxicity (3.01998 µM) | LDH release cytotoxicity (9.55 µM) | LDH release cytotoxicity (30.199752 µM) | LDH release cytotoxicity (95.5 µM)
CCOP(=S)(OCC)SCCSCC [Disulfoton] | -1.14 ± 0.34% | -1.12 ± 0.75% | -1.03 ± 0.2% | -1.51 ± 0.2% | -1.34 ± 0.37% | -1.32 ± 0.63% | -1.01 ± 0.54% | -0.345 ± 0.13% |  |  |  |  |  |  |  |  |  | 
CC(C)c1cccc(C(C)C)c1N1C(=O)c2ccc(O)cc2C1=O [2-(2,6-Diisopropylphenyl)-5-hydroxy-1H-isoindole-1,3-dione] | 0.356 ± 0.042% | 0.0666 ± 0.077% | -0.376 ± 0.57% | -0.99 ± 0.87% | -0.278 ± 0.47% | -0.287 ± 0.3% | -0.0632 ± 1% | 0.492 ± 1.2% |  |  |  |  |  |  |  |  |  | 
CCC(C)(C)c1ccc(O)c(C(C)(C)CC)c1 [2,4-Di-tert-pentylphenol] | 0.622 ± 0.85% | -1.25 ± 0.82% | -0.993 ± 0.16% | -1.77 ± 0.046% | -1.69 ± 0.36% | -1.3 ± 0.39% | -1.19 ± 0.04% | 0.754 ± 0.54% |  |  |  |  |  |  |  |  |  | 
O=C(O)C1C(C(=O)O)C2(Cl)C(Cl)=C(Cl)C1(Cl)C2(Cl)Cl (configuration not stated) [Chlorendic acid] | -0.458 ± 0.46% | -0.878 ± 0.64% | -1.72 ± 0.51% | -1.15 ± 0.69% | -0.967 ± 0.21% | -0.519 ± 0.29% | -0.436 ± 0.8% | 0.638 ± 1.1% |  |  |  |  |  |  |  |  |  | 
Clc1ccc(Cl)c(Cl)c1 [1,2,4-Trichlorobenzene] | -0.83 ± 0.22% | -0.799 ± 0.65% | -1.05 ± 0.33% | -0.848 ± 0.19% | -1.46 ± 0.75% | -0.626 ± 0.011% | -0.776 ± 0.65% | -0.785 ± 0.46% |  |  |  |  |  |  |  |  |  | 
CN(C)CCO [Dimethylaminoethanol] | 0.182 ± 0.62% | -0.302 ± 1.6% | -0.0529 ± 0.18% | -1.37 ± 0.049% | -1.09 ± 1.8% | -1.02 ± 0.62% | -0.601 ± 0.24% | 1.07 ± 0.52% |  |  |  |  |  |  |  |  |  | 
Nc1ccc(Oc2ccc(N)cc2)cc1 [4,4'-Oxydianiline] |  | -3.05 ± 0.94% |  | -2.52 ± 0.66% | -1.772 ± 0.0034% | -0.999 ± 2.1% | 17 ± 3.5% | 62.8 ± 3.5% | -1.51 ± 0.78% | -1.18 ± 1.3% |  |  |  |  |  |  |  | 
NC=O [Formamide] | -0.907 ± 0.53% | -1.37 ± 0.46% | -0.701 ± 1.2% | -1.62 ± 1.2% | -1.72 ± 0.14% | -1.47 ± 1.5% | -0.537 ± 0.33% | 0.4 ± 1.3% |  |  |  |  |  |  |  |  |  | 
CC(C)c1nnc2ccc(-c3ocnc3-c3cc(F)ccc3F)cn12 | -1.28 ± 0.22% | -1.01 ± 0.88% | -1.08 ± 0.44% | -1.31 ± 0.37% | -2.01 ± 0.34% | -1.36 ± 0.45% | -2.04 ± 0.03% | 5.98 ± 0.59% |  |  |  |  |  |  |  |  |  | 
CC12CCC(=O)C=C1CCC1C2CCC2(C)C1CCC2(C)O (configuration not stated) [17-Methyltestosterone] | -1.79 ± 1.4% | -1.97 ± 0.62% | -1.97 ± 1.4% | -1.95 ± 2.3% | -2.67 ± 0.81% | -2.51 ± 1.4% | -2.52 ± 1.9% | -1.06 ± 1.5% |  |  |  |  |  |  |  |  |  | 
CCOC(=O)CC(CC(=O)OCC)(OC(C)=O)C(=O)OCC [Acetyltriethyl citrate] | -2.01 ± 1.3% | -1.76 ± 0.41% | -1.48 ± 0.41% | -1.13 ± 1.1% | -0.615 ± 0.31% | -1.09 ± 1.7% | 0.655 ± 0.037% | 0.942 ± 0.48% |  |  |  |  |  |  |  |  |  | 
CCCCNC(=O)OCC#CI [3-Iodo-2-propynyl-N-butylcarbamate] |  |  |  |  |  |  |  |  |  |  | 3.83 ± 0.91% | 4.17 ± 0.21% | 4.24 ± 0.97% | 4.49 ± 0.11% | 4.53 ± 0.06% | 4.22 ± 2% | 19.6 ± 1.1% | 82.9 ± 2.8%
CC(Oc1ccc(CNC(=O)c2cccnc2Oc2ccc3c(c2)OCO3)c(F)c1)C(=O)O (configuration not stated) | 0.432 ± 0.73% | -0.868 ± 0.12% | -1.04 ± 0.64% | -1.35 ± 0.25% | -1.24 ± 0.19% | -0.8947 ± 0.0016% | -0.798 ± 0.6% | -0.624 ± 0.43% |  |  |  |  |  |  |  |  |  | 
c1nc[nH]n1 [1H-1,2,4-Triazole] | 0.679 ± 0.53% | 0.298 ± 0.72% | -1.06 ± 0.17% | -0.618 ± 0.53% | 0.566 ± 1.4% | 0.541 ± 1.2% | 1.08 ± 0.1% | 2.04 ± 1.2% |  |  |  |  |  |  |  |  |  | 
CCOP(=S)(OCC)Oc1cc(C)nc(C(C)C)n1 [Diazinon] | -0.351 ± 0.5% | -0.469 ± 0.17% | -1.1 ± 0.52% | -1.24 ± 0.3% | 0.347 ± 0.03% | -0.4 ± 0.31% | -0.512 ± 0.59% | 0.528 ± 0.71% |  |  |  |  |  |  |  |  |  | 
C=C(C)C(=O)OCCC(F)(F)C(F)(F)C(F)(F)C(F)(F)C(F)(F)C(F)(F)F [6:2 Fluorotelomer methacrylate] | -0.461 ± 0.18% | 0.735 ± 1.2% | 0.518 ± 0.41% | -0.0542 ± 0.29% | 0.38 ± 0.35% | 0.535 ± 0.98% | 0.834 ± 0.34% | 1.55 ± 0.43% |  |  |  |  |  |  |  |  |  | 
C#CC1(O)CCC2C3CCc4cc(O)ccc4C3CCC21C (stereo not drawn) [17alpha-Ethinylestradiol] | -0.935 ± 0.49% | -0.618 ± 0.51% | -0.346 ± 0.13% | -0.588 ± 0.39% | -0.768 ± 0.53% | -0.554 ± 1.1% | 0.171 ± 0.51% | 1.412 ± 0.013% |  |  |  |  |  |  |  |  |  | 
CCc1cnc(C2=NC(C)(C(C)C)C(=O)N2)c(C(=O)O)c1 (configuration not stated) [Imazethapyr] | -0.727 ± 0.19% | -1.781 ± 0.0048% | -1.13 ± 0.36% | -1.33 ± 0.57% | -1.54 ± 0.26% | -1.13 ± 0.26% | -0.237 ± 0.13% | 0.45 ± 0.53% |  |  |  |  |  |  |  |  |  | 
CCC1CCC(NCc2cc3c(cc2OC)C2CC2C(=O)N3C)C(c2ccccc2)N1 (configuration not stated) | -1.16 ± 0.78% | -1.78 ± 0.18% | -0.445 ± 0.68% | -1.5 ± 1.7% | -0.96 ± 1.1% | -0.794 ± 0.26% | 0.439 ± 0.24% | 7.84 ± 0.41% |  |  |  |  |  |  |  |  |  | 
